Test results: patent publication US4789675A, “1,4-benzoxazine derivatives and pharmaceutical use” (priority 1986, dated 1988)
Counter-ions that a name gives are not always drawn. Like-named read-outs stand apart in the source and are kept apart here.

Tests used:
[1] = test system: Spontaneously hypertensive rats; assay: Antihypertensive action in spontaneously hypertensive rats (tail-cuff); format: in vivo, rat; settings: 1 hour after administration
Description: Spontaneously hypertensive rats (male, 12 to 13 weeks old, blood pressure before administration of drug was about 200 mmHg) were used in groups of 3 individuals. After measuring tail arterial pressure of these animals by the tail-cuff method, the animals were orally given 3 to 60 mg/kg of each test compound of this invention as 2 ml of its suspension in gum arabic. Blood pressure measurements were made again one hour after administration of each test compound.

[2] = test system: caffeine-induced contraction of rabbit aorta strip depending on intracellular Ca^++; assay: Intracellular Ca++ antagonism: inhibition of caffeine-induced contraction of aorta strip in Ca-free/EGTA solution; settings: Oryctolagus cuniculus, caffeine 20 mM, Ca++ 0 mM, EGTA 5 mM, read-out: Inhibitory percent (caffeine contraction); for inhibition at 1 µM: compound 10^-6 M; for inhibition at 10 µM: compound 10^-5 M
Description: A spiral strip of aorta of a rabbit (2 to 3 mm width, aobut 3 cm length) was allowed to equilibrate by hanging under 2 g force in a Krebs-Henseleitsolution. The solution was saturated with a mixture gas of 97% O2 -3% CO2, which was warmed to 37° C. The strip was moved into another Krebs-Henseleit solution containing Ca^++ OmM and EGTA 5 mM. Five minutes later, caffeine (20 mM) was added to the solution. The resulting contraction of the strip was made as the index of the contraction depending on intracellular Ca^++.

[3] = Acute toxicity (oral, 7 days observation); settings: rat, in vivo, male rats, five animals/group, seven days
Source text: Male Wister rats aged five weeks (five animals/group) were orally given the test compounds (Example No. 1, 14, 15 and 18) suspended in a 5% solution of gum arabic. Each animal so treated was observed over a period of seven days.

[4] = test system: contraction of rabbit aorta strip caused by KCl; assay: Vasodilating action: inhibition of contraction of aorta strip caused by KCl; settings: Oryctolagus cuniculus, compound 10^-5 M, KCl (6.0 mM), read-out: Inhibitory percent against contraction (KCl)
Description: (§1) A spiral strip of aorta of a rabbit (2 to 3 mm width, about 3 cm length) was allowed to equilibrate by hanging under 2 g force in a Krebs-Henseleitsolution. The solution was saturated with a mixture gas of 97% O2 -3% CO2 which was warmed to 37° C. Inhibitory actions of compounds (10^-5 M) of this invention against contraction of the aorta strip caused by KCl ([…]), norepinephrine (NE) (10^-6 M) or serotonin (5-HT) (10^-6 M), by treating the strip with a compound of this invention 30 minutes before the test (15 minutes in the case of 5-HT), are shown in Table 1 as inhibitory percentage.

[5] = test system: ischemia-reperfusion-induced ventricular arrhythmia in rats; assay: Effect on the ischemia-reperfusion-induced ventricular arrhythmia in rats; format: in vivo, rat; settings: p.o., rats with change/rats used; for Cardiac arrest incidence: control 8/18; for Ventricular fibrillation incidence: control 17/18; for Ventricular tachycardia incidence: control 18/18
Description: Male Sprague-Dawley rats, 9 to 10 week old, were orally given the compounds or tap water at a volume of 5 ml/kg. After one hour, the animals were anesthetized with sodium pentobarbital (50 mg/kg, by intraperitoneal injection), and they were subjected to thoractomy under artificial respiration, and the left anterior descending coronary artery was occluded for five minutes. The incidences of ventricular tachycardia, ventricular fibrilation and cardiac arrest for ten minutes after reperfusion of the blood were calculated.

[6] = test system: contraction of rabbit aorta strip caused by serotonin (5-HT); assay: Vasodilating action: inhibition of contraction of aorta strip caused by serotonin (5-HT); settings: Oryctolagus cuniculus; compound 10^-5 M; 5-HT 10^-6 M; treated 15 minutes before the test; read-out: Inhibitory percent against contraction (5-HT)
Description: as §1

[7] = test system: contraction of rabbit aorta strip caused by norepinephrine (NE); assay: Vasodilating action: inhibition of contraction of aorta strip caused by norepinephrine (NE); settings: Oryctolagus cuniculus, compound 10^-5 M, NE 10^-6 M, read-out: Inhibitory percent against contraction (NE)
Description: as §1

[8] = test system: acute renal failure in rats; assay: Effect on acute renal failure in rats (plasma urea nitrogen, BUN); format: in vivo, rat; settings: p.o., control 27 ± 1, *P < 0.05
Description: Male sprague-Dawley rats, 6 week old, were orally given the compunds or tap water at a volume of 5 ml/kg. After one hour, the animals were anesthetized with sodium pentobarbital. The animals were subjected to laparotomy, and the left renal artery was clamped completely for one hour. The clamp was undone, and the incision was closed. The animals were again given orally the compounds or tap water 20 hours later. Further four hours later, the animals were again anesthetized, and the blood was obtained from the abdominal aorta. The plasma was separated for measurement of urea nitrogen (BUN).

[9] = treating 3 hours before the test (*1)
[10] = treated 30 minutes before the test

| Compound | Antihypertensive effect (Δ mm Hg) ([1]; 3 mg/kg oral) [mm Hg] | inhibition at 10 µM [4, 10] [%] | inhibition at 10 µM [7, 10] [%] | further results |
| --- | --- | --- | --- | --- |
| O=C1Nc2cc3c(cc2OC1CCCN1CCN(c2ccccc2)CC1)CCCC3 (stereo not shown) [Example 18] | 32 | – | – | inhibition at 1 µM [2]: 59%; LD50 at 168 h [3]: ≥ 300 mg/kg |
| O=C1Nc2cc3c(cc2OC1CCCN1CCN(c2ccc(F)cc2)CC1)CCCC3 (stereo not shown) [1 (2HCl salt), 2-{3-[4-(4-fluorophenyl)-1-piperazinyl]propyl}-6,7,8,9-tetrahydro-2H-naphtho[2,3-b][1,4]oxazin-3(4H)-one] | 30 | – | – | inhibition at 10 µM [4, 9]: 82%; Cardiac arrest incidence ([5]; 3 mg/kg): 2/9; Ventricular fibrillation incidence ([5]; 3 mg/kg, *P < 0.05): 5/9; Ventricular tachycardia incidence ([5]; 3 mg/kg): 7/9; Cardiac arrest incidence ([5]; 10 mg/kg): 4/11; Ventricular fibrillation incidence ([5]; 10 mg/kg, **P < 0.01): 5/11; Ventricular tachycardia incidence ([5]; 10 mg/kg, **P < 0.01): 7/11; Cardiac arrest incidence ([5]; 20 mg/kg): 0/5; Ventricular fibrillation incidence ([5]; 20 mg/kg, **P < 0.01): 0/5; Ventricular tachycardia incidence ([5]; 20 mg/kg, **P < 0.01): 2/5; Antihypertensive effect (Δ mm Hg) ([1]; 10 mg/kg oral): 50 mm Hg; inhibition at 10 µM [6]: 52%; inhibition at 10 µM ([7]; treating 2 hours before the test (*2)): 95%; BUN ([8]; 1 mg/kg): 24 ± 0.5 mg/dL; BUN ([8]; 3 mg/kg): 22 ± 2 mg/dL; BUN ([8]; 10 mg/kg): 23 ± 0.5 mg/dL |
| Nc1ccc2c(c1)NC(=O)C(CCCN1CCN(c3ccc(F)cc3)CC1)O2 (stereo not shown) [Example 24, 6-amino-2-{3-[4-(4-fluorophenyl)-1-piperazinyl]propyl}-2H-1,4-benzoxazin-3(4H)-one] | – | – | – | Antihypertensive effect (Δ mm Hg) ([1]; 60 mg/kg oral): 60 mm Hg |
| O=C1Nc2cc3c(cc2OC1CCCCN1CCN(c2ccc(F)cc2)CC1)CCCC3 (stereo not shown) [Example 22] | 23 | 14 | 95 | inhibition at 10 µM [6]: 38% |
| O=C1Nc2cc3c(cc2OC1CCCN1CCN(c2cccc(F)c2)CC1)CCCC3 (stereo not shown) [Example 14] | 54 | – | – | inhibition at 1 µM [2]: 61%; LD50 at 168 h [3]: ≥ 300 mg/kg |
| O=C1Nc2cc3c(cc2OC1CCCN1CCN(c2ccc(F)cc2)CC1)CCC3 (stereo not shown) [Example 12] | 20 | 21 | 100 | – |
| O=C1Nc2ccccc2OC1CCCN1CCN(c2ccc(F)cc2)CC1 (stereo not shown) [Example 2] | – | – | 100 | inhibition at 10 µM [4, 9]: 73%; Antihypertensive effect (Δ mm Hg) ([1]; 60 mg/kg oral): 44 mm Hg |
| O=C1Nc2cc3c(cc2O[C@H]1CCCN1CCN(c2ccc(F)cc2)CC1)CCCC3 [Example 30, (S)-(-)-2-{3-[4-(4-fluorophenyl)-1-piperazinyl]propyl}-6,7,8,9-tetrahydro-2H-naphtho[2,3-b][1,4]oxazin-3(4H)-one] | 21 | 33 | 73 | – |
| O=C1Nc2cc(Cl)ccc2OC1CCCN1CCN(c2ccc(F)cc2)CC1 (stereo not shown) [Example 7] | – | 29 | 98 | inhibition at 10 µM [6]: 81% |
| O=C1Nc2cc3c(cc2OC1CCCN1CCN(c2ccc(O)cc2)CC1)CCCC3 (stereo not shown) [Example 21] | – | 26 | 99 | inhibition at 1 µM [2]: 54% |
| O=C1Nc2cc3c(cc2O[C@@H]1CCCN1CCN(c2ccc(F)cc2)CC1)CCCC3 [Example 31, (R)-(+)-2-{3-[4-(4-fluorophenyl)-1-piperazinyl]propyl}-6,7,8,9-tetrahydro-2H-naphtho[2,3-b][1,4]oxazin-3(4H)-one] | 21 | 30 | 99 | – |
| CCOC(=O)c1ccc2c(c1)OC(CCCN1CCN(c3ccc(F)cc3)CC1)C(=O)N2 (stereo not shown) [Example 8] | – | 33 | 98 | Antihypertensive effect (Δ mm Hg) ([1]; 60 mg/kg oral): 35 mm Hg |
| Cc1ccc2c(c1)NC(=O)C(CCCN1CCN(c3ccc(F)cc3)CC1)O2 (stereo not shown) [Example 3] | – | 10 | 99 | Antihypertensive effect (Δ mm Hg) ([1]; 60 mg/kg oral): 45 mm Hg; inhibition at 10 µM [6]: 91%; inhibition at 10 µM [2]: 60% |
| O=C1Nc2cc(C(F)(F)F)ccc2OC1CCCN1CCN(c2ccc(F)cc2)CC1 (stereo not shown) [Example 27, 2-{3-[4-(4-fluorophenyl)-1-piperazinyl]propyl}-6-trifluoromethyl-2H-1,4-benzoxazin-3(4H)-one] | – | 36 | 98 | – |
| O=C1Nc2c(ccc3c2CCC3)OC1CCCN1CCN(c2ccc(F)cc2)CC1 (stereo not shown) [Example 28, 5,6-cyclopenteno-2-{3-[4-(4-fluorophenyl)-1-piperazinyl]propyl}-2H-1,4-benzoxazin-3(4H)-one] | 20 | 28 | 100 | – |
| O=C1Nc2cc3c(cc2OC1CCCN1CCN(c2ccc(F)cc2)CC1)OCO3 (stereo not shown) [Example 13] | 27 | 24 | 100 | – |
| Cc1ccc2c(c1)NC(=O)C(CCN1CCN(c3ccc(F)cc3)CC1)O2 (stereo not shown) [Example 5] | – | 9 | 86 | inhibition at 10 µM [6]: 100%; inhibition at 10 µM [2]: 58% |
| Cc1ccc(N2CCN(CCCC3Oc4cc5c(cc4NC3=O)CCCC5)CC2)cc1 (stereo not shown) [Example 17] | 26 | – | – | – |
| O=C1Nc2cc([N+](=O)[O-])ccc2OC1CCCN1CCN(c2ccc(F)cc2)CC1 (stereo not shown) [Example 6, 2-{3-[4-(4-fluorophenyl)-1-piperazinyl]propyl}-6-nitro-2H-1,4-benzoxazin-3(4H)-one] | – | 37 | 100 | Antihypertensive effect (Δ mm Hg) ([1]; 60 mg/kg oral): 43 mm Hg; inhibition at 10 µM [6]: 81% |
| CN1C(=O)C(CCCN2CCN(c3ccc(F)cc3)CC2)Oc2cc3c(cc21)CCCC3 (stereo not shown) [Example 23, 2-{3-[4-(4-fluorophenyl)-1-piperazinyl]propyl}-6,7,8,9-tetrahydro-4-methyl-2H-naphtho[2,3-b][1,4]oxazin-3(4H)-one] | – | – | – | inhibition at 1 µM [2]: 42% |
| COc1ccccc1N1CCN(CCCC2Oc3cc4c(cc3NC2=O)CCCC4)CC1 (stereo not shown) [Example 15] | 49 | 8 | 100 | inhibition at 1 µM [2]: 58%; LD50 at 168 h [3]: ≥ 300 mg/kg |
| CC(=O)Nc1ccc2c(c1)NC(=O)C(CCCN1CCN(c3ccc(F)cc3)CC1)O2 (stereo not shown) [Example 25, 6-acetamido-2-{3-[4-(4-fluorophenyl)-1-piperazinyl]propyl}-2H-1,4-benzoxazin-3(4H)-one] | – | 9 | 100 | Antihypertensive effect (Δ mm Hg) ([1]; 60 mg/kg oral): 81 mm Hg |
| O=C1Nc2c(ccc3c2CCCC3)OC1CCCN1CCN(c2ccc(F)cc2)CC1 (stereo not shown) [Example 10] | – | – | – | Antihypertensive effect (Δ mm Hg) ([1]; 10 mg/kg oral): 23 mm Hg; inhibition at 10 µM [2]: 59% |
